Values quoted from earlier work, collected in patent US6001802A, “Platelet-derived growth factor analogues” (Trigen Limited, priority 1993, dated 1999).
Where no end group is shown, it is not given here.

Key:
PDGF β-receptors = PDGF β-receptors (Homo sapiens, UniProt P09619); details: reference [6]
[1] = system: smooth muscle cells of injured arteries; details: administration of PDGF, rat angioplasty model [19]

Sequence of PDGF β-receptors (P09619 33-1106): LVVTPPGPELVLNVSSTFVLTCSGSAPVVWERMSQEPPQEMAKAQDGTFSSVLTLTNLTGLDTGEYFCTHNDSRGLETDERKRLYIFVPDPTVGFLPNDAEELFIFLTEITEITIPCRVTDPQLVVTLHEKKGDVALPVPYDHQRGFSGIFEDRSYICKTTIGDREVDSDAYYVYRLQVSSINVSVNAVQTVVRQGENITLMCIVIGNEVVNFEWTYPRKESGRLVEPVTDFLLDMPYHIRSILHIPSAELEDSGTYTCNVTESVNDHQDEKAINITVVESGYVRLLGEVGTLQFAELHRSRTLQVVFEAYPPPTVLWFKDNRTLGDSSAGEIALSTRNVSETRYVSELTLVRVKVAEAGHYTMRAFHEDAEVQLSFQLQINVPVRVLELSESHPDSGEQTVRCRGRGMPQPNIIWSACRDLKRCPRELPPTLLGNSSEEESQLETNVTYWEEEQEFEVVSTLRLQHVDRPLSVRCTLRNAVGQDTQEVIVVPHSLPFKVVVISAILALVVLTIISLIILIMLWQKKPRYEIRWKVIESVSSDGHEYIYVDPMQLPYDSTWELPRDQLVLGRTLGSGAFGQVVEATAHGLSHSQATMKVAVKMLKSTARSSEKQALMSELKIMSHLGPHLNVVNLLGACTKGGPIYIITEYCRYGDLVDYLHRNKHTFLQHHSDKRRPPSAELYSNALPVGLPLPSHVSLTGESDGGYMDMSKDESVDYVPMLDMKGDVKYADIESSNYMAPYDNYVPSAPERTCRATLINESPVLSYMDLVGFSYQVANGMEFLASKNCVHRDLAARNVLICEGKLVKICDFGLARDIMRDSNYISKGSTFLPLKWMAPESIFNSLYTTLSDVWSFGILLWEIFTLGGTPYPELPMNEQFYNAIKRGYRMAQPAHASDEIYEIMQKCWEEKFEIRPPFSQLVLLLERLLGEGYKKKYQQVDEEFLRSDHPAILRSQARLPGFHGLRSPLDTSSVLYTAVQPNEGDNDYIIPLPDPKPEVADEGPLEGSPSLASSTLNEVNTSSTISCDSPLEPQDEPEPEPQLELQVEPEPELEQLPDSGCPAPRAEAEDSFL

Substance	antagonist for PDGF (PDGF β-receptors)	SMC migration from the media to the intima [1]	SMC proliferation in the media [1]
ANFLVW - - - EIVRKKP (also: N-terminal ANFLVW segment joined by an unspecified link (- - -)) [literature peptide of PDGF-B chain residues 35-40 and 78-83 [6]]	effective as an antagonist for PDGF		
PDGF: 28-31 KD dimeric, highly basic glycoprotein, potent mitogen for connective tissue cells		20 fold	2-3 fold
